From US20240391862A1, “(1,4,5-TRISUBSTITUTED-1H-PYRAZOL-3-YL)OXY-2-ALKOXY ALKYL ACIDS AND THEIR DERIVATIVES, THEIR SALTS AND THEIR USE AS HERBICIDAL AGENTS” (Bayer AKtiengesellschaft, priority 2021, published 2024)

Columns and labels:
Test in all cases: Post-emergence herbicidal effect, greenhouse pot test
ECHCG = type: in vivo, Echinochloa crus-galli
Method in brief: (§1)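 Weeds sown in sandy loam, greenhouse-grown 2–3 weeks, then sprayed at one-leaf stage with WP or EC formulations in water plus 0.5% additive at 600 l/ha. Rates 20 to 320 g/ha. Visual rating after about 3 weeks versus untreated controls (100% = plants dead, 0% = like control).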

POLCO = type: in vivo, Fallopia convolvulus
Method in brief: as §1

LOLRI = type: in vivo, Lolium rigidum
Method in brief: as §1

AMARE = type: in vivo, Amaranthus retroflexus; conditions: visual rating about 3 weeks after treatment
Method in brief: as §1

ALOMY = type: in vivo, Alopecurus myosuroides; conditions: visual rating about 3 weeks after treatment
Method in brief: as §1

KCHSC = type: in vivo
Method in brief: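 Greenhouse plants in sandy loam, sprayed post-emergence at the one-leaf stage (2–3 weeks after sowing) with WP or EC formulations in water plus 0.5% additive at 600 l/ha. Rates 20 to 320 g/ha. Activity rated visually after about 3 weeks against untreated controls (0% like control, 100% dead).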

PHBPU = type: in vivo, Ipomoea purpurea
Method in brief: as §1

MATIN = type: in vivo, Tripleurospermum inodorum
Method in brief: as §1

SETVI = type: in vivo, Setaria viridis
Method in brief: as §1

AVEFA = type: in vivo, Avena fatua; conditions: visual rating about 3 weeks after treatment
Method in brief: as §1

VERPE = type: in vivo, Veronica persica
Method in brief: as §1

DIGSA = type: in vivo, Digitaria sanguinalis; conditions: 320 g/ha, visual rating about 3 weeks after treatment
Method in brief: as §1

ABUTH = type: in vivo, Abutilon theophrasti; conditions: visual rating about 3 weeks after treatment
Method in brief: as §1

VIOTR = type: in vivo, Viola tricolor
Method in brief: as §1

CCOC(=O)C(OCC)Oc1nn(-c2ccccc2F)c(-c2ccc(F)nc2)c1Br (single isomer, unassigned) [Example I-66, Ethyl (2R*)-{[4-bromo-1-(2-fluorophenyl)-5-(6-fluoropyridin-3-yl)-1H-pyrazol-3-yl]oxy}(ethoxy)acetate]
90%: pest or weed control at 80 g/ha (ECHCG; Echinochloa crus-galli, 504 h, 80 g/ha, read-out: Post-emergence effect against ECHCG in %) | pest or weed control at 320 g/ha (ECHCG; Echinochloa crus-galli, 504 h, 320 g/ha, read-out: Post-emergence effect against ECHCG in %) | pest or weed control at 320 g/ha (LOLRI; Lolium rigidum, 504 h, 320 g/ha, read-out: Post-emergence effect against LOLRI in %) | pest or weed control at 320 g/ha (ALOMY; Alopecurus myosuroides, 504 h, 320 g/ha, read-out: Post-emergence effect against ALOMY) | pest or weed control at 320 g/ha (KCHSC; 504 h, 320 g/ha, read-out: Post-emergence effect against KCHSC in %) | pest or weed control at 320 g/ha (PHBPU; Ipomoea purpurea, 504 h, 320 g/ha, read-out: Post-emergence effect against PHBPU in %) | pest or weed control at 320 g/ha (MATIN; Tripleurospermum inodorum, 504 h, 320 g/ha, read-out: Post-emergence effect against MATIN in %) | pest or weed control at 320 g/ha (SETVI; Setaria viridis, 504 h, 320 g/ha, read-out: Post-emergence effect against SETVI in %) | pest or weed control at 320 g/ha (VERPE; Veronica persica, 504 h, 320 g/ha, read-out: Post-emergence effect against VERPE in %) | pest or weed control at 320 g/ha (DIGSA; Digitaria sanguinalis, 504 h, read-out: Post-emergence effect against DIGSA) | pest or weed control at 320 g/ha (ABUTH; Abutilon theophrasti, 504 h, 320 g/ha, read-out: Post-emergence effect against ABUTH)
80%: pest or weed control at 320 g/ha (POLCO; Fallopia convolvulus, 504 h, 320 g/ha, read-out: Post-emergence effect against POLCO in %) | pest or weed control at 80 g/ha (AMARE; Amaranthus retroflexus, 504 h, 80 g/ha, read-out: Post-emergence effect against AMARE) | pest or weed control at 320 g/ha (AMARE; Amaranthus retroflexus, 504 h, 320 g/ha, read-out: Post-emergence effect against AMARE) | pest or weed control at 80 g/ha (KCHSC; 504 h, 80 g/ha, read-out: Post-emergence effect against KCHSC in %) | pest or weed control at 20 g/ha (PHBPU; Ipomoea purpurea, 504 h, 20 g/ha, read-out: Post-emergence effect against PHBPU in %) | pest or weed control at 80 g/ha (PHBPU; Ipomoea purpurea, 504 h, 80 g/ha, read-out: Post-emergence effect against PHBPU in %) | pest or weed control at 80 g/ha (MATIN; Tripleurospermum inodorum, 504 h, 80 g/ha, read-out: Post-emergence effect against MATIN in %) | pest or weed control at 320 g/ha (AVEFA; Avena fatua, 504 h, 320 g/ha, read-out: Post-emergence effect against AVEFA) | pest or weed control at 80 g/ha (VERPE; Veronica persica, 504 h, 80 g/ha, read-out: Post-emergence effect against VERPE in %) | pest or weed control at 80 g/ha (ABUTH; Abutilon theophrasti, 504 h, 80 g/ha, read-out: Post-emergence effect against ABUTH)

COC(=O)CCOC(=O)C(OC)Oc1nn(-c2cc(F)ccc2F)c(-c2cncc(F)c2)c1C1CC1 (single isomer, unassigned) [Example I-79]
90%: Post-emergence effect against VIOTR in % (VIOTR; 20 g/ha) | Post-emergence effect against VIOTR in % (VIOTR; 80 g/ha) | Post-emergence effect against VIOTR in % (VIOTR; 320 g/ha) | Post-emergence effect against ECHCG in % (ECHCG; 80 g/ha) | Post-emergence effect against ECHCG in % (ECHCG; 320 g/ha) | Post-emergence effect against POLCO in % (POLCO; 80 g/ha) | Post-emergence effect against POLCO in % (POLCO; 320 g/ha) | Post-emergence effect against LOLRI in % (LOLRI; 80 g/ha) | Post-emergence effect against LOLRI in % (LOLRI; 320 g/ha) | Post-emergence effect against ALOMY (ALOMY; 320 g/ha) | Post-emergence effect against PHBPU in % (PHBPU; 20 g/ha) | Post-emergence effect against PHBPU in % (PHBPU; 80 g/ha) | Post-emergence effect against PHBPU in % (PHBPU; 320 g/ha) | Post-emergence effect against SETVI in % (SETVI; 20 g/ha) | Post-emergence effect against SETVI in % (SETVI; 80 g/ha) | Post-emergence effect against SETVI in % (SETVI; 320 g/ha) | Post-emergence effect against AVEFA (AVEFA; 80 g/ha) | Post-emergence effect against AVEFA (AVEFA; 320 g/ha) | Post-emergence effect against VERPE in % (VERPE; 20 g/ha) | Post-emergence effect against VERPE in % (VERPE; 80 g/ha) | Post-emergence effect against VERPE in % (VERPE; 320 g/ha) | Post-emergence effect against ABUTH (ABUTH; 320 g/ha)
80%: Post-emergence effect against ECHCG (ECHCG; 20 g/ha, visual rating about 3 weeks after treatment) | Post-emergence effect against AMARE (AMARE; 20 g/ha) | Post-emergence effect against AMARE (AMARE; 80 g/ha) | Post-emergence effect against AMARE (AMARE; 320 g/ha) | Post-emergence effect against ALOMY (ALOMY; 80 g/ha) | Post-emergence effect against KCHSC in % (KCHSC; 320 g/ha) | Post-emergence effect against MATIN in % (MATIN; 80 g/ha) | Post-emergence effect against MATIN in % (MATIN; 320 g/ha) | Post-emergence effect against DIGSA (DIGSA) | Post-emergence effect against ABUTH (ABUTH; 20 g/ha) | Post-emergence effect against ABUTH (ABUTH; 80 g/ha)
